Here are results for twelve compounds from ChEMBL document CHEMBL1201862, “PubChem BioAssay data set” (2004).

Test systems include HCC 2998; A549; UACC-62; M19-MEL; SK-MEL-28; HOP-92; MCF7; NCI-H226; DMS-114; NCI-H522; SN12C; CAKI-1; OVCAR-8; RXF 393; HOP-62; Malme-3M; KM-20L2; MDA-MB-435; BT-549; MDA-N.
What all share (assay): NCI-60 cell line screen, 48 h

Structures are written as SMILES.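 Method: 48-hour compound exposure of cells in 96-well plates, five concentrations, linear interpolation of endpoints. At the GI50, growth is halved.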 Activity calls are given as the source filed them. Rule as the data show it: active = GI50 up to about 1.1 µM and inactive = higher.

For `OC[C@H]1O[C@@H](n2cnc3cncnc32)[C@H](O)[C@@H]1O` [NEBULARINE], the GI50 in the assay with HCC 2998 is 0.989 µM (active); with A549, 0.904 µM (active); in the assay on UACC-62, 1.16 µM (inactive); in the assay with M19-MEL, 3.27 µM (inactive); in the assay with SK-MEL-28 it was 1.39 µM (inactive); in the assay with HOP-92, 0.656 µM (active). Moreover, the GI50 in the assay on MCF7 is 0.307 µM (active); in the assay with NCI-H226, 1.34 µM (inactive); in the assay on DMS-114, 1.21 µM (inactive); in the assay with NCI-H522 it was 2.1 µM (inactive); in the assay on SN12C, 1.4 µM (inactive); in the assay on CAKI-1 it was 0.423 µM (active). Also, the GI50 in the assay on OVCAR-8 is 1.17 µM (inactive); in the assay on RXF 393, 1.31 µM (inactive); with HOP-62, 2.45 µM (inactive); with Malme-3M, 2.03 µM (inactive); in the assay on KM-20L2, 1.04 µM (active).

For the compound `COC(=O)C1C(C)N1C` (stereo not drawn), the GI50 in the assay with HCC 2998, in the assay with A549, in the assay on UACC-62, in the assay on M19-MEL, with SK-MEL-28 and in the assay with HOP-92 was > 100 µM (inactive) in each case. Also, the GI50 in the assay on NCI-H226, with DMS-114, with NCI-H522, in the assay on SN12C, in the assay with OVCAR-8 and in the assay on RXF 393 was > 100 µM (inactive) throughout. Moreover, in the assay on HOP-62, the GI50 was > 100 µM (inactive).

For `CCOC(=O)NC(Nc1ncccn1)(C(=O)OCC)C(F)(F)F` (stereo not drawn), the GI50 in the assay on HCC 2998 was > 100 µM (inactive); in the assay on A549, > 100 µM (inactive); in the assay on UACC-62 it was 63.4 µM (inactive); with SK-MEL-28, > 100 µM (inactive); with MDA-MB-435, > 100 µM (inactive); with HOP-92, > 100 µM (inactive). Also, the GI50 in the assay with BT-549, in the assay on MCF7, with NCI-H522, in the assay with SN12C, in the assay on CAKI-1 and in the assay on OVCAR-8 was > 100 µM (inactive) in each case. Further, the GI50 in the assay with RXF 393 and in the assay with MDA-N was > 100 µM (inactive) in each case.

With `CCOc1ccc(/C(C=O)=C(\Cl)c2ccc(OC)c(OC)c2)cc1`, the GI50 is 68.9 µM (inactive) in the assay with UACC-62; > 100 µM (inactive) in the assay on M19-MEL; > 100 µM (inactive) in the assay on SK-MEL-28; > 100 µM (inactive) in the assay on HOP-92; > 100 µM (inactive) in the assay on NCI-H226; > 100 µM (inactive) in the assay with DMS-114. For the same compound, the GI50 in the assay on NCI-H522, in the assay on SN12C, in the assay on CAKI-1, with OVCAR-8, in the assay with Malme-3M and in the assay on KM-20L2 was > 100 µM (inactive) throughout.

Regarding `O=C(O)C1CCCCN1c1ccccc1[N+](=O)[O-]` (stereo not drawn), the GI50 in the assay with HCC 2998, in the assay on A549, in the assay with UACC-62, in the assay with M19-MEL, with HOP-92 and in the assay on NCI-H226 was > 100 µM (inactive) each time. Further, the GI50 in the assay with DMS-114, in the assay on NCI-H522, in the assay with SN12C, in the assay with CAKI-1, with OVCAR-8 and in the assay with RXF 393 was > 100 µM (inactive) each time. Further, the GI50 in the assay on HOP-62, in the assay with Malme-3M and in the assay with KM-20L2 was > 100 µM (inactive) throughout.

Regarding `O=C=C=P(c1ccccc1)(c1ccccc1)c1ccccc1`, the GI50 in the assay with HCC 2998 is 61.5 µM (inactive); in the assay on A549, 40.6 µM (inactive); with M19-MEL it was 27.1 µM (inactive); in the assay with SK-MEL-28 it was > 100 µM (inactive); in the assay with HOP-92, 16.1 µM (inactive); with NCI-H226, 45.6 µM (inactive). In addition, the GI50 with DMS-114 was 22.8 µM (inactive); with SN12C, > 100 µM (inactive); in the assay with CAKI-1, 59.4 µM (inactive); with OVCAR-8, 72.6 µM (inactive); in the assay with RXF 393, 92.5 µM (inactive); in the assay on Malme-3M, 30.6 µM (inactive).

As to `O=c1ccn(COC(COCc2ccccc2)COCc2ccccc2)c(=O)[nH]1`, the GI50 with HCC 2998 is > 100 µM (inactive); with UACC-62, 86.9 µM (inactive); in the assay with SK-MEL-28, > 100 µM (inactive); in the assay on MDA-MB-435, > 100 µM (inactive); in the assay with HOP-92 it was > 100 µM (inactive); with BT-549, > 100 µM (inactive). The GI50 with MCF7, in the assay on NCI-H226, with SN12C, with CAKI-1, with OVCAR-8 and in the assay with RXF 393 was > 100 µM (inactive) in each case. Moreover, the GI50 in the assay with HOP-62, in the assay on Malme-3M and in the assay with MDA-N was > 100 µM (inactive) each time.

For the compound `CCC(C(=O)O)c1ccc(OC)cc1` (stereo not drawn), the GI50 in the assay on HCC 2998, in the assay with A549, in the assay on UACC-62, with M19-MEL, in the assay on SK-MEL-28 and with HOP-92 was > 100 µM (inactive) throughout. For the same compound, the GI50 in the assay with NCI-H226, in the assay with DMS-114, in the assay with NCI-H522, in the assay with SN12C, in the assay with CAKI-1 and with RXF 393 was > 100 µM (inactive) throughout. For the same compound, the GI50 in the assay with HOP-62, with Malme-3M and in the assay with KM-20L2 was > 100 µM (inactive) throughout.

As for `Clc1ccc(C[P+](c2ccccc2)(c2ccccc2)c2ccccc2)c(Cl)c1`, the GI50 in the assay with HCC 2998 was 3.47 µM (inactive); in the assay with A549 it was 4.47 µM (inactive); with UACC-62, 2.4 µM (inactive); with M19-MEL, 1.88 µM (inactive); in the assay with SK-MEL-28 it was 5.98 µM (inactive); in the assay with HOP-92, 1.71 µM (inactive). Moreover, the GI50 was 2.34 µM (inactive) in the assay with NCI-H226; 1.52 µM (inactive) in the assay on DMS-114; 1.67 µM (inactive) in the assay with NCI-H522; 2.7 µM (inactive) in the assay on SN12C; 2.75 µM (inactive) with OVCAR-8; 2.7 µM (inactive) in the assay with RXF 393. Also, the GI50 in the assay on HOP-62 is 2.79 µM (inactive); in the assay with Malme-3M it was 3.87 µM (inactive); in the assay on KM-20L2 it was 2.61 µM (inactive).

Take `CCOC(=O)NC(Nc1ccc(Cl)cn1)(C(F)(F)F)C(F)(F)F`: the GI50 in the assay with HCC 2998, in the assay on UACC-62, in the assay on SK-MEL-28, with MDA-MB-435, in the assay with BT-549 and in the assay on MCF7 was > 100 µM (inactive) throughout. Further, the GI50 in the assay with NCI-H226 was > 100 µM (inactive); in the assay on NCI-H522, > 100 µM (inactive); in the assay with RXF 393, 97.5 µM (inactive); in the assay with HOP-62, > 100 µM (inactive); with Malme-3M, > 100 µM (inactive); in the assay with MDA-N it was > 100 µM (inactive).

Turning to `COc1ccc(C[C@H](N)C(=O)N2C[C@H](CO)C[C@H](n3ccc(=O)[nH]c3=O)C2)cc1`, the GI50 in the assay on HCC 2998, in the assay with A549, with UACC-62, with M19-MEL, with SK-MEL-28 and with HOP-92 was > 100 µM (inactive) in each case. Also, the GI50 in the assay with NCI-H226, with DMS-114, in the assay with NCI-H522, in the assay on SN12C, in the assay on CAKI-1 and in the assay on OVCAR-8 was > 100 µM (inactive) in each case. Besides, the GI50 with RXF 393, in the assay on HOP-62, in the assay with Malme-3M and with KM-20L2 was > 100 µM (inactive) each time.

Take `O=C1c2ccccc2C(=O)N1CC(O)COc1cccc2ccccc12` (stereo not drawn): the GI50 in the assay on HCC 2998, in the assay on A549, with UACC-62, with SK-MEL-28, with MDA-MB-435 and with MCF7 was > 100 µM (inactive) in each case. Also, the GI50 was > 100 µM (inactive) in the assay with NCI-H522; 16.2 µM (inactive) in the assay on CAKI-1; > 100 µM (inactive) in the assay with OVCAR-8; > 100 µM (inactive) with HOP-62; 61.8 µM (inactive) in the assay with Malme-3M; > 100 µM (inactive) in the assay on MDA-N.
